In ChEMBL document CHEMBL1909046, “DrugMatrix in vitro pharmacology data”:

How the values were obtained:
[1] = target: T1, Alpha-2C adrenergic receptor (Homo sapiens, UniProt P18825); assay: DRUGMATRIX: Adrenergic Alpha-2C radioligand binding (ligand: [3H] MK-912); type: cell membranes, Sf9, Membrane
T1 sequence (P18825 whole entry): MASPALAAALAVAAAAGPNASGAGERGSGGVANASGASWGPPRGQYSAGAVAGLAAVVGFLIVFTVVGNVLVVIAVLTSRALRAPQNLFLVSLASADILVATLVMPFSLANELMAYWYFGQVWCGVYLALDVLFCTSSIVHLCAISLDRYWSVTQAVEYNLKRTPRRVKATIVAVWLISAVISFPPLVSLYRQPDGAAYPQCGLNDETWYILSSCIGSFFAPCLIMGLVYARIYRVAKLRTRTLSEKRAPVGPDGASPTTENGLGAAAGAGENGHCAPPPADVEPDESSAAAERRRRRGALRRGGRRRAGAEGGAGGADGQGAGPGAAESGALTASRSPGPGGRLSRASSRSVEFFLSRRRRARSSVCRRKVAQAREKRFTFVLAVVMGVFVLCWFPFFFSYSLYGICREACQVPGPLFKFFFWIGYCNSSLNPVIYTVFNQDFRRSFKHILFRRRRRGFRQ

[2] = DRUGMATRIX: Serotonin (5-Hydroxytryptamine) 5-HT3 radioligand binding (ligand: [3H] GR-65630); type: cell membranes, Membrane; details: hek293, Not Active = under 50% inhibition at 10 µM
Thromboxane-A synthase = target: T2, Thromboxane-A synthase (Homo sapiens, UniProt P24557); assay: biochemical; type: tissue-based, Platelet;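 also: enzyme inhibition assay with PGH2 supplied as substrate; in other assays of this panel Not Active means under 50% inhibition at 10 µM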
T2 sequence (P24557 whole entry): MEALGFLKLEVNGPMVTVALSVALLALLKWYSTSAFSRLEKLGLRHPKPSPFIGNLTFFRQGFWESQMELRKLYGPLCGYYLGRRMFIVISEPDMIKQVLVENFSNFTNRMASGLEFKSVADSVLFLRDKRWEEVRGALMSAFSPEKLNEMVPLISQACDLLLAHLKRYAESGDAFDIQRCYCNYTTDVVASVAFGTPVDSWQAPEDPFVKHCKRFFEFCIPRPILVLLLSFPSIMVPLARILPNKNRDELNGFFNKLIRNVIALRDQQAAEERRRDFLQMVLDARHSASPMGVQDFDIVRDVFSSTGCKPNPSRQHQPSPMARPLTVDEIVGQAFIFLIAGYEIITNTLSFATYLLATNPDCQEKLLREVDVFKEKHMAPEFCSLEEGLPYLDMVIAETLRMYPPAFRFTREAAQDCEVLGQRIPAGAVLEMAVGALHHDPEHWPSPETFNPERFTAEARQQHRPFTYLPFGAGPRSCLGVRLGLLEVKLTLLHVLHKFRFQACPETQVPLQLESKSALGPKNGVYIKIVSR

[3] = DRUGMATRIX: Interleukin IL-1 radioligand binding (ligand: [125I] interleukin 1beta); type: cell membranes, Membrane; details: nih3t3; Not Active = under 50% inhibition at 10 µM
[4] = target: T3, Muscarinic acetylcholine receptor M5 (Homo sapiens, UniProt P08912); type: cell membranes, CHO-K1, Membrane; also: in other assays of this panel Not Active means under 50% inhibition at 10 µM
T3 sequence (P08912 whole entry): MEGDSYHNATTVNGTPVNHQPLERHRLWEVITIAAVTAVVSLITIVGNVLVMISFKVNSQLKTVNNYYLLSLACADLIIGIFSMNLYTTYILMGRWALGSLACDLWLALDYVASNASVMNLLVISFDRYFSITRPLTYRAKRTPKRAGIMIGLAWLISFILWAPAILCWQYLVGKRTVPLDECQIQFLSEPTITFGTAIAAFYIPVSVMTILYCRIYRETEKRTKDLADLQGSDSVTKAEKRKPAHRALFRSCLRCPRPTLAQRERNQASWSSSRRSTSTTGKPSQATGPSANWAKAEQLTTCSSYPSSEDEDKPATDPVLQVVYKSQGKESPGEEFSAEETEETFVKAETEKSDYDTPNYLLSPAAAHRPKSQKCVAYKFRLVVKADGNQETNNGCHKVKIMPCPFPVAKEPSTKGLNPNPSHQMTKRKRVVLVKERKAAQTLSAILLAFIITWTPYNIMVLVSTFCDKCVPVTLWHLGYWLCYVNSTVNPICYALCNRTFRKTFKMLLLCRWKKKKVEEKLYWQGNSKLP

Molecule | IC50 ([1]; sf9) | IC50 [2] | Ki [2] | IC50 (Thromboxane-A synthase; platelet) | IC50 [3] | Ki [3] | IC50 ([4]; cho-k1) | IC50 (Thromboxane-A synthase; read-out: IC50) | IC50 ([2]; read-out: IC50) | Ki ([2]; read-out: Ki) | IC50 ([4]; read-out: IC50) | Ki ([4]; read-out: Ki) | Ki ([1]; sf9) | Ki (Thromboxane-A synthase; platelet) | Ki ([4]; cho-k1) | IC50 ([1]; read-out: IC50) | Ki ([1]; read-out: Ki)
CC[C@@]1(O)C(=O)OCc2c1cc1n(c2=O)Cc2cc3c(CN(C)C)c(O)ccc3nc2-1 [TOPOTECAN] | Not Active | Not Active | Not Active | Not Active | Not Active | Not Active | Not Active | – | – | – | – | – | – | – | – | – | –
C#C[C@]1(O)CC[C@H]2[C@@H]3[C@H](C)CC4=C(CCC(=O)C4)[C@H]3CC[C@@]21C [TIBOLONE] | Not Active | Not Active | Not Active | Not Active | Not Active | Not Active | Not Active | – | – | – | – | – | – | – | – | – | –
Oc1ccc(/C=C/c2cc(O)cc(O)c2)cc1 [RESVERATROL] | Not Active | Not Active | Not Active | Not Active | Not Active | Not Active | Not Active | – | – | – | – | – | – | – | – | – | –
Cc1ccc(Cl)c(Nc2ccccc2C(=O)O)c1Cl [MECLOFENAMIC ACID] | Not Active | Not Active | Not Active | Not Active | Not Active | Not Active | Not Active | – | – | – | – | – | – | – | – | – | –
Cc1ccnc(NS(=O)(=O)c2ccc(N)cc2)n1 [SULFAMERAZINE] | Not Active | Not Active | Not Active | Not Active | Not Active | Not Active | Not Active | – | – | – | – | – | – | – | – | – | –
CCOc1cc(N)c(Cl)cc1C(=O)NCC1CN(Cc2ccc(F)cc2)CCO1 (stereo not given) [MOSAPRIDE] | Not Active | Not Active | Not Active | Not Active | Not Active | Not Active | Not Active | – | – | – | – | – | – | – | – | – | –
C[C@]12CCC(=O)C[C@@H]1CC[C@@H]1[C@@H]2CC[C@]2(C)[C@@H](O)CC[C@@H]12 [STANOLONE] | Not Active | Not Active | Not Active | Not Active | Not Active | Not Active | Not Active | – | – | – | – | – | – | – | – | – | –
C[N+]1(C)[C@@H]2C[C@@H](OC(=O)[C@H](CO)c3ccccc3)C[C@H]1[C@@H]1O[C@@H]12.[Br-] [METHSCOPOLAMINE BROMIDE] | Not Active | Not Active | Not Active | Not Active | Not Active | Not Active | – | – | – | – | – | – | – | – | – | – | –
OC[C@@H](O)[C@@H](O)[C@H](O)[C@H](O)CO [MANNITOL] | Not Active | Not Active | Not Active | Not Active | Not Active | Not Active | Not Active | – | – | – | – | – | – | – | – | – | –
O=C(O)c1cc(/N=N/c2ccc(S(=O)(=O)Nc3ccccn3)cc2)ccc1O [SULFASALAZINE] | Not Active | Not Active | Not Active | – | Not Active | Not Active | Not Active | 19.6 µM | – | – | – | – | – | – | – | – | –
CC1=C(/C=C/C(C)=C/C=C/C(C)=C/C(=O)O)C(C)(C)CCC1 [TRETINOIN] | Not Active | Not Active | Not Active | Not Active | Not Active | Not Active | Not Active | – | – | – | – | – | – | – | – | – | –
CC[C@H](C)C(=O)O[C@H]1CCC=C2C=C[C@H](C)[C@H](CC[C@@H]3C[C@@H](O)CC(=O)O3)[C@H]21 [MEVASTATIN] | Not Active | Not Active | Not Active | Not Active | Not Active | Not Active | Not Active | – | – | – | – | – | – | – | – | – | –
CCN(CC)C(=S)SSC(=S)N(CC)CC | Not Active | Not Active | Not Active | Not Active | Not Active | Not Active | Not Active | – | – | – | – | – | – | – | – | – | –
O=[As][O-].[Na+] [SODIUM ARSENITE] | Not Active | Not Active | Not Active | Not Active | Not Active | Not Active | Not Active | – | – | – | – | – | – | – | – | – | –
CCN(CC)N=O [N-NITROSODIETHYLAMINE] | Not Active | Not Active | Not Active | Not Active | Not Active | Not Active | Not Active | – | – | – | – | – | – | – | – | – | –
Nc1nc(N)c2nc(-c3ccccc3)c(N)nc2n1 | Not Active | Not Active | Not Active | Not Active | Not Active | Not Active | Not Active | – | – | – | – | – | – | – | – | – | –
CCN(CC)CCNC(=O)c1cc(Cl)c(N)cc1OC [METOCLOPRAMIDE] | Not Active | – | – | Not Active | Not Active | Not Active | Not Active | – | 4.01 µM | 0.902 µM | – | – | – | – | – | – | –
Cc1cc2c(s1)Nc1ccccc1N=C2N1CCN(C)CC1 [OLANZAPINE] | – | – | – | Not Active | – | – | – | – | – | – | – | – | – | – | – | – | –
Cc1nnc(NS(=O)(=O)c2ccc(N)cc2)s1 [SULFAMETHIZOLE] | Not Active | Not Active | Not Active | Not Active | Not Active | Not Active | Not Active | – | – | – | – | – | – | – | – | – | –
CC#C[C@]1(O)CC[C@H]2[C@@H]3CCC4=CC(=O)CCC4=C3[C@@H](c3ccc(N(C)C)cc3)C[C@@]21C [MIFEPRISTONE] | Not Active | Not Active | Not Active | Not Active | Not Active | Not Active | Not Active | – | – | – | – | – | – | – | – | – | –
CS(=O)(=O)c1ccc(C2=C(c3ccccc3)C(=O)OC2)cc1 [ROFECOXIB] | Not Active | Not Active | Not Active | Not Active | Not Active | Not Active | Not Active | – | – | – | – | – | – | – | – | – | –
CC1(C)[C@H](C(=O)O)N2C(=O)C[C@H]2S1(=O)=O [SULBACTAM] | Not Active | Not Active | Not Active | Not Active | Not Active | Not Active | Not Active | – | – | – | – | – | – | – | – | – | –
CO[C@@H]1[C@@H](OC)[C@H](C)[C@@](O)(CC(=O)O)O[C@H]1[C@H](C)[C@H]1O[C@@]2(CC[C@@](C)([C@H]3CC[C@@](C)([C@@H]4O[C@@H]([C@H]5O[C@](C)(O)[C@H](C)C[C@@H]5C)C[C@@H]4O[C@@H]4C[C@H](OC)[C@@H](OC)[C@H](C)O4)O3)O2)C[C@H](O)[C@H]1C.N [MADURAMICIN] | Not Active | Not Active | Not Active | Not Active | Not Active | Not Active | Not Active | – | – | – | – | – | – | – | – | – | –
CNCCCC12CCC(c3ccccc31)c1ccccc12 [MAPROTILINE] | – | – | – | Not Active | – | – | – | – | – | – | 0.16 µM | 0.115 µM | – | – | – | – | –
LEAD(IV) ACETATE | Not Active | Not Active | Not Active | Not Active | Not Active | Not Active | Not Active | – | – | – | – | – | Not Active | Not Active | Not Active | – | –
O=C(c1ccccc1)c1ccc2n1CCC2C(=O)O (stereo not given) [KETOROLAC] | Not Active | Not Active | Not Active | Not Active | Not Active | Not Active | Not Active | – | – | – | – | – | – | – | – | – | –
CC[C@H](C)[C@@H](CO[C@@H](Cc1ccccc1)C(=O)N[C@@H](CCS(C)(=O)=O)C(=O)OC(C)C)NC[C@@H](N)CS | – | Not Active | Not Active | Not Active | Not Active | Not Active | Not Active | – | – | – | – | – | – | – | – | 3.14 µM | 0.456 µM
CN1C(=O)OC(C)(C)C1=O [TRIMETHADIONE] | Not Active | Not Active | Not Active | Not Active | Not Active | Not Active | Not Active | – | – | – | – | – | – | – | – | – | –
CN(C)CCC=C1c2ccccc2COc2ccccc21 [DOXEPIN] | – | – | – | Not Active | – | – | – | – | – | – | – | – | – | – | – | – | –
